{"source": "patent US12053506B2", "about": "“Romo1-derived antimicrobial peptides and variants thereof” (priority 2019, dated 2024)", "type_in_all_cases": "cell-based", "key": {"[1]": {"system": "Pseudomonas aeruginosa (ATCC 27853)", "procedure,_shortened": "(§1)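 Bacteria grown in 3% TSB at 37° C, diluted in 10 mM sodium phosphate/1% TSB to 1×10^5 CFU/ml in wells, exposed to peptides (0–300 μg/ml) for 1 h at 37° C. Mixtures plated on TS agar for 18 h at 37° C; MBC is the lowest concentration giving no colonies.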"}, "[2]": {"system": "Staphylococcus aureus (ATCC 29213)", "procedure,_shortened": "as §1"}, "[3]": {"system": "Pseudomonas aeruginosa and Staphylococcus aureus", "assay": "MBC assay, antibacterial activity of Romo1-derived peptides compared in words", "conditions": "Table 1 peptides", "source_text": "Romo1 protein comprises two α-helices. The present inventors synthesized the α-helix 2 region having both hydrophilicity and hydrophobicity, and evaluated the antibacterial activity thereof using minimum bactericidal concentration (MBC) assay. The α-helix 2 region was named KU-5279 (the 52-79 amino acid region of Romo1 protein). Then, in order to identify peptides that are beneficial for human application and have excellent antibacterial activity, the present inventors synthesized several peptides comprising a sequence of contiguous amino acids starting at any amino acid selected from the 52-79 amino acid region of Romo1 protein, and comparatively evaluated the antibacterial activities of the peptides by minimum bactericidal concentration assay (See Table 1 below for information on each peptide). Evaluation of the antibacterial activity of each peptide by minimum bactericidal concentration assay was specifically performed as follows. First, each of Pseudomonas aeruginosa (ATCC 27853) and Staphylococcus aureus (ATCC 29213) was cultured in 3% (w/v) TSB (Tryptic Soy Broth) liquid medium at 37° C. and 200 rpm for 4 hours, and then further cultured under the same conditions for 3 hours to a concentration of 5×10^6 CFU/ml. […]"}}, "note": "No end group written: not given here."}
{"sequence": "KTMMQSGGTFGTFMAIGMGIR [KU-5878]", "values": [{"measurement": "MBC (μg/ml) value against Pseudomonas aeruginosa", "setting": "[1]; ATCC 27853", "value": 100, "unit": "µg/mL"}, {"measurement": "MBC value (μg/ml) against Pseudomonas aeruginosa", "setting": "[1]; ATCC 27853, 1 h", "value": 100, "unit": "µg/mL"}, {"measurement": "MBC Pseudomonas aeruginosa", "setting": "[1]; Tables 11-15, no unit printed", "value": 100, "unit": "µg/mL"}, {"measurement": "MBC (μg/ml) value against Staphylococcus aureus", "setting": "[2]; ATCC 29213", "value": 100, "unit": "µg/mL"}, {"measurement": "MBC value (μg/ml) against Staphylococcus aureus", "setting": "[2]; ATCC 29213, 1 h", "value": 100, "unit": "µg/mL"}, {"measurement": "MBC Staphylococcus aureus", "setting": "[2]; Tables 11-15, no unit printed", "value": 100, "unit": "µg/mL"}, {"measurement": "antibacterial activity by MBC assay, in words", "setting": "[3]", "value": "three times better antibacterial activity than KU-5279"}]}
